Consider four compounds from US6444668B1 (Wyeth, priority 1999, dated 2002).

One series concerns T47D cells. The experiment in a line: T47D cell proliferation assay (BrdU incorporation). The note with it: agonist mode, individual studies, read-out: Estimated EC50, BrdU incorporation. In kind it is cell-based. The protocol:
3. T47D Cell Proliferation Assay
The objective of this assay is the determination of progestational and antiprogestational potency by using a cell proliferation assay in T47D cells. A compound's effect on DNA synthesis in T47D cells is measured.
DMEM:F12 (1:1) (GIBCO, BRL) supplemented with 10% (v/v) fetal bovine serum (not heat-inactivated), 100U/ml penicillin, […] streptomycin, and 2 mM GlutaMax (GIBCO, BRL).
Minimum Essential Medium (MEM) (#51200-038GIBCO, BRL) phenol red-free supplemented with 0.5% charcoal stripped fetal bovine serum, 100U/ml penicillin, 200 mg/ml streptomycin, and 2 mM GlutaMax (GIBCO, BRL).
Stock T47 D cells are maintained in growth medium. For BrdU incorporation assay, cells are plated in 96-well plates (Falcon, Becton Dickinson Labware) at 10,000 cells/well in growth medium. […]
At the end of BrdU labeling, the medium is removed and BrdU incorporation is measured using a cell proliferation ELISA kit (#RPN 250, Amersham Life Science) according to manufacturer's instructions. […] Then 25 μl of 1 M sulfuric acid is added to each well to stop color reaction and optical density is read in a plate reader at 450 nm within 5 min.
Square root-transformed data are used for analysis of variance and nonlinear dose response curve fitting for both agonist and antagonist modes. […] EC50 or IC50 values are calculated from the retransformed values. […]

The target in the next series is T1, human PR (Homo sapiens, UniProt P06401).
T1 construct: expressed in transfected cells; host or cells: CV-1 cells (electroporation)
T1 sequence (P06401 1-933): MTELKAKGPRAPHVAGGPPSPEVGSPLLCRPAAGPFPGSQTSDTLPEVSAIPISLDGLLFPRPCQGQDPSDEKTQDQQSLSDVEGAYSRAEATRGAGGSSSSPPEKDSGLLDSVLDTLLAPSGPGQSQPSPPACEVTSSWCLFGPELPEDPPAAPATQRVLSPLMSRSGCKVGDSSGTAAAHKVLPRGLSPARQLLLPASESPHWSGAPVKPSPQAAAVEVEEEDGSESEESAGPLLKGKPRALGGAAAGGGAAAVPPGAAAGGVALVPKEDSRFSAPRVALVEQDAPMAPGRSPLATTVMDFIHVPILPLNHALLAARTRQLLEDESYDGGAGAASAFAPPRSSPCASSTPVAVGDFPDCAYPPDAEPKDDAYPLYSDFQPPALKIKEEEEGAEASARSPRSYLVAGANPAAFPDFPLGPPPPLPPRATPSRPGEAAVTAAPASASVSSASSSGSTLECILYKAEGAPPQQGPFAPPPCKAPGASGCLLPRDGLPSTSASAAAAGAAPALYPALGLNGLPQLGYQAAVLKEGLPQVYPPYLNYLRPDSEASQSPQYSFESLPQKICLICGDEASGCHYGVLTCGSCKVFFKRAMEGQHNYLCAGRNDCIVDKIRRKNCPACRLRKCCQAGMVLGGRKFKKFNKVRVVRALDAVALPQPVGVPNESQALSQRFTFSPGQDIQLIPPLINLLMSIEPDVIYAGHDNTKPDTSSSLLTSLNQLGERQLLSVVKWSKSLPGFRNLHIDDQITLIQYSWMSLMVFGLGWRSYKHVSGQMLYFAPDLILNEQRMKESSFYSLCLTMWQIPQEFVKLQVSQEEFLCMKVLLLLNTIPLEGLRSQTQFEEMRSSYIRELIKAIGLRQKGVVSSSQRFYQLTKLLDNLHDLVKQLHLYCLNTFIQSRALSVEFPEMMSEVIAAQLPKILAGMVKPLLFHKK
The experiment in a line: PRE-luciferase assay in CV-1 cells. In kind it is cell-based. The note with it: PR antagonist; CV-1 cells co-transfected with human PR and PRE-luciferase; in the presence of 3 nM progesterone; read-out: hPR CV-1 IC50. The protocol:
2. PRE-luciferase Assay in CV-1 to Cells
The object of this assay is to determine a compound's progestational or antiprogestational potency based on its effect on PRE-luciferase reporter activity in CV-1 cells co-transfected with human PR and PRE-luciferase plasmids. The materials methods used in the assay are as follows.
The growth medium was as follows: DMEM (BioWhittaker) containing 10% (v/v) fetal bovine serum (heat inactivated), 0.1 mM MEM non-essential amino acids, 100U/ml penicillin, […] streptomycin, and 2 mM GlutaMax (GIBCO, BRL). The experimental medium was as follows: DMEM (BioWhittaker), phenol red-free, containing 10% (v/v) charcoal-stripped fetal bovine serum (heat-inactivated), 0.1 mM MEM non-essential amino acids, 100U/ml penicillin […] streptomycin, and 2 mM GlutaMax (GIBCO, BRL).
b. Cell Culture, Transfection, Treatment, and Luciferase Assay
Stock CV-1 cells are maintained in growth medium Co-transfection is done using 1.2×10^7 cells, 5 mg pLEM plasmid with hPR-B inserted at Sph1 and BamH1 sites, 10 mg pGL3 plasmid with two PREs upstream of the luciferase sequence, and 50 mg sonicated calf thymus DNA as carrier DNA in […]. […] Luciferase activity is measured using luciferase reagents from Promega.
Each treatment consists of at least 4 replicates. […] EC50 or IC50 values are calculated from the retransformed values.

In series [1] the test system is rat uterine decidualization. The experiment in a line: Rat decidualization assay. Type of series: in vivo. The protocol:
1. Rat Decidualization Assay
b. Animals (RACUC Protocol #5002)
The animals are treated once daily for seven days.
Uteri are removed and trimmed of fat.
Body weight: Mean total animal body weight (default-kg)
Decidual response: [(D-C)/C]x100%

Several values for one entry are separate records, joined by “and”; a condition that tells them apart may be missing. Equal entries are not always repeated. Where two headings read alike, the source gives them in different places.

`C[C@H](O)C(=O)[C@@]1(C)CC[C@H]2[C@@H]3CCC4=CC(=O)CCC4=C3CC[C@@]21C` [Trimegestone]: the EC50 in the series with T47D cells is 17 pM and 14 pM and 19 pM.

As to `CC1(C)OC(=O)Nc2ccc(-c3coc(C#N)c3)cc21` [Compound 7, 4-(44-Dimethyl-2-oxo-1,4-dihydro-2H-benzo[d][1,3]oxazin-6-yl)-furan-2-carbonitrile], the IC50 at human PR amounted to 30000 pM. The “Decidualization, percentage inhibition at the dose specified” value in series [1] (dose 3 mg/kg) was 75% @ 3. Regarding `CC(=O)O[C@]1(C(C)=O)CC[C@H]2[C@@H]3C[C@H](C)C4=CC(=O)CC[C@]4(C)[C@H]3CC[C@@]21C` [MPA, medroxyprogesterone acetate, reference compound], the EC50 with T47D cells (Homo sapiens, T47D) was 19 pM. In addition, in series [1] (s.c., individual studies), the “Estimated EC50 for uterine wet weight (decidual response)” value is 0.42 mg/kg and 0.39 mg/kg (2×). As to `CC1(C)OC(=O)Nc2ccc(-c3cc(Cl)cc(Cl)c3)cc21` [Compound 4, 6-(3,5dichloro-phenyl)-4,4-dimethyl-1,4-dihydrobenzo-[d][1,3]oxazin-2-one], the melting point is 245 to 246 °C. Also, the inhibition at 1 mg/kg in series [1] (dose 1 mg/kg, read-out: Decidualization, percentage inhibition at the dose specified) turned out to be 60%.
